From paper PMC4239642, “trans-Acting Arginine Residues in the AAA+ Chaperone ClpB Allosterically Regulate the Activity through Inter- and Intradomain Communication” (The Journal of Biological Chemistry, 2014)
Read-outs that look alike come from different tables or passages of the source. Blank lines part the entries; values can stand above or below the compound they belong to.

Tests used:
ClpB NBD1-M [1] = biological target: T1, ClpB NBD1-M (Thermus thermophilus, UniProt Q9RA63, R322A); experiment: fluorescence displacement titration against MANT-dADP; format: binding; details: 2 µM protein, 50 mM Tris/HCl pH 7.5, 50 mM KCl, 5 mM MgCl2, 2 mM EDTA, 25 °C
T1 construct: expressed in E. coli BL21 (DE3) RIL; monomer/dimer equilibrium for the arginine mutants
T1 sequence (Q9RA63 141-534 R322A): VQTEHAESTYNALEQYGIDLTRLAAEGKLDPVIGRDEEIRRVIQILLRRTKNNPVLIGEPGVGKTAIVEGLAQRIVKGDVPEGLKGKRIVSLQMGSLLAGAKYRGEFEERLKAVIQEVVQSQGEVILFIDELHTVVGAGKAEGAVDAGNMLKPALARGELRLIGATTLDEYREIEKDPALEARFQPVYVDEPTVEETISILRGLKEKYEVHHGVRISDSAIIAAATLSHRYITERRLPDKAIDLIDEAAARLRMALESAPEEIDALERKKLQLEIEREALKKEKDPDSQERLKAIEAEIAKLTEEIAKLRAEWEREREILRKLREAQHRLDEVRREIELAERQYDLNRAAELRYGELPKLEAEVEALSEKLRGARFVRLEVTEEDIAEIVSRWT
Description: (§1) fluorescence displacement titration against MANT-dADP on ClpB NBD1-M

ClpB NBD1-M [2] = biological target: T2, ClpB NBD1-M (Thermus thermophilus, UniProt Q9RA63, R323A); experiment: as above; format: binding; details: 2 µM protein, 50 mM Tris/HCl pH 7.5, 50 mM KCl, 5 mM MgCl2, 2 mM EDTA, 25 °C
T2 construct: expressed in E. coli BL21 (DE3) RIL; monomer/dimer equilibrium for the arginine mutants
T2 sequence (Q9RA63 141-534 R323A): as the sequence (Q9RA63 141-534 R322A) above, with A182R, R183A counted along it
Description: as §1

ClpB NBD1-M [3] = biological target: T3, ClpB NBD1-M (Thermus thermophilus, UniProt Q9RA63, R322A/R323A); experiment: as above; format: binding; details: 2 µM protein, 50 mM Tris/HCl pH 7.5, 50 mM KCl, 5 mM MgCl2, 2 mM EDTA, 25 °C
T3 construct: expressed in E. coli BL21 (DE3) RIL; monomer/dimer equilibrium for the arginine mutants
T3 sequence (Q9RA63 141-534 R322A/R323A): as the sequence (Q9RA63 141-534 R322A) above, with R183A counted along it
Description: as §1

[4] = biological target: T4, ClpB NBD1-M dimer with P221C/M394C disulfide crosslink (Thermus thermophilus, UniProt Q9RA63, P221C/M394C); experiment: as above; format: binding; details: 2 µM protein, 50 mM Tris/HCl pH 7.5, 50 mM KCl, 5 mM MgCl2, 2 mM EDTA, 25 °C
T4 construct: NBD1-M (residues 141-534) covalent dimer linked by intermolecular disulfide between P221C of one subunit and M394C of the other; expressed in E. coli BL21 (DE3) RIL; one cross-linked and one free site; associates to tetramers with ATP
T4 sequence (Q9RA63 141-534 M394C): as the sequence (Q9RA63 141-534 R322A) above, with A182R, M254C counted along it
T4 sequence (Q9RA63 141-534 P221C): as the sequence (Q9RA63 141-534 R322A) above, with P81C, A182R counted along it
Description: (§2) fluorescence displacement titration against MANT-dADP on ClpB NBD1-M dimer with P221C/M394C disulfide crosslink

[5] = biological target: T4, ClpB NBD1-M dimer with P221C/M394C disulfide crosslink; experiment: coupled colorimetric ATPase assay, Hill equation fit; format: biochemical; details: 5 µM protein (monomer units); 50 mM Tris/HCl pH 7.5, 100 mM KCl, 10 mM MgCl2, 2 mM EDTA, 25 °C; kcat per monomer
Description: coupled colorimetric ATPase assay, Hill equation fit on ClpB NBD1-M dimer with P221C/M394C disulfide crosslink

[6] = biological target: T5, ClpB NBD1-M dimer with P221C/M394C disulfide crosslink (Thermus thermophilus, UniProt Q9RA63, P221C/M394C, form not given); experiment: fluorescence displacement titration against MANT-dADP; format: binding; details: read-out: KD(ATP); 2 µM protein; 50 mM Tris/HCl pH 7.5, 50 mM KCl, 5 mM MgCl2, 2 mM EDTA, 25 °C; ATP-regenerating system (phosphoenolpyruvate, pyruvate kinase)
T5 construct: NBD1-M (residues 141-534) covalent dimer linked by intermolecular disulfide between P221C of one subunit and M394C of the other; expressed in E. coli BL21 (DE3) RIL; one cross-linked and one free site; associates to tetramers with ATP
T5 sequence (Q9RA63 141-534 M394C): as the sequence (Q9RA63 141-534 R322A) above, with A182R, M254C counted along it
T5 sequence (Q9RA63 141-534 P221C): as the sequence (Q9RA63 141-534 R322A) above, with P81C, A182R counted along it
Description: as §2

[7] = biological target: T6, ClpB NBD1-M dimer with P221C/M394C disulfide crosslink (Thermus thermophilus, UniProt Q9RA63, M394C/P221C); experiment: stopped-flow FRET kinetics (koff/kon); format: binding; details: read-out: KD "free"
T6 construct: NBD1-M (residues 141-534) covalent dimer linked by intermolecular disulfide between P221C of one subunit and M394C of the other; expressed in E. coli BL21 (DE3) RIL; one cross-linked and one free site; associates to tetramers with ATP
T6 sequence (Q9RA63 141-534 M394C): as the sequence (Q9RA63 141-534 R322A) above, with A182R, M254C counted along it
T6 sequence (Q9RA63 141-534 P221C): as the sequence (Q9RA63 141-534 R322A) above, with P81C, A182R counted along it
Description: stopped-flow FRET kinetics (koff/kon) on ClpB NBD1-M dimer with P221C/M394C disulfide crosslink

ClpB NBD1-M [8] = biological target: T1, ClpB NBD1-M; experiment: stopped-flow FRET kinetics (koff/kon); format: binding
Description: (§3) stopped-flow FRET kinetics (koff/kon) on ClpB NBD1-M

ClpB NBD1-M [9] = biological target: T2, ClpB NBD1-M; experiment: stopped-flow FRET kinetics (koff/kon); format: binding
Description: as §3

ClpB NBD1-M [10] = biological target: T3, ClpB NBD1-M; experiment: stopped-flow FRET kinetics (koff/kon); format: binding
Description: as §3

[11] = read-out: KD(ATP), ATP-regenerating system (phosphoenolpyruvate, pyruvate kinase)

Kd (ClpB NBD1-M [1]; read-out: KD(ADP)): 10.7 ± 0.6 µM
Kd (ClpB NBD1-M [2]; read-out: KD(ADP)): 10.2 ± 0.6 µM
Kd (ClpB NBD1-M [3]; read-out: KD(ADP)): 9.3 ± 0.7 µM
Kd ([4]; read-out: KD(ADP)): 1.3 ± 0.1 µM
Compound: Nc1ncnc2c1ncn2[C@@H]1O[C@H](COP(=O)(O)OP(=O)(O)O)[C@@H](O)[C@H]1O [ADP]

Kd (ClpB NBD1-M [1]; [11]): 1670 ± 160 µM
Kd (ClpB NBD1-M [2]; [11]): 1040 ± 120 µM
Kd (ClpB NBD1-M [3]; [11]): 2050 ± 180 µM
Km [5]: 162 ± 4 µM
Kd [6]: 438 ± 17 µM
Kd [4, 11]: 96 ± 11 µM
Compound: Nc1ncnc2c1ncn2[C@@H]1O[C@H](COP(=O)(O)OP(=O)(O)OP(=O)(O)O)[C@@H](O)[C@H]1O [ATP]

Kd [7]: 0.67 ± 0.04 µM
Kd (ClpB NBD1-M [8]): 8.3 ± 0.4 µM
Kd (ClpB NBD1-M [9]): 6.7 ± 0.2 µM
Kd (ClpB NBD1-M [10]): 6.9 ± 0.2 µM
Compound: CNc1ccccc1C(=O)O[C@H]1C[C@H](n2cnc3c(N)ncnc32)O[C@@H]1COP(=O)(O)OP(=O)(O)O [MANT-dADP, 2′-deoxy-3′-O-(N′-methylanthraniloyl)adenosine-5′-O-diphosphate]
